Data reported in patent publication US20150190396A1, “TREATMENT OF TYPE I AND TYPE II DIABETES” (Melior Pharmaceuticals I, Inc., priority 2011, published 2015).
“Also recorded” adds a separate entry of the source.

Experiments:
Assay type in all cases: in vivo
[1] = test system: streptozocin Type I diabetic male CD-1: ICR mice; assay: Streptozocin Type I diabetic mice, insulin tolerance test, blood glucose
Experimental: In the present study, male CD-1: ICR mice (Charles River) approximately 8 weeks of age were used. Streptozocin administration to mice destroys pancreatic β-cells and is used to produce a model of Type I diabetes. In response to loss of pancreatic β-cells, mice become hyperglycemic. These mice are insulin responsive.
Streptozocin administration: Streptozocin administration to mice was conducted by a standard method. Briefly, mice were administered STZ at a dose-level of 70 mg/kg on day 1, 3 and 8. Each administration was preceded by an 18 hour fast. Mice were administered insulin (0.5 U) on days 2 and 9. On day 11, blood glucose levels were measured. Mice with blood glucose levels less than 300 mg/dL were excluded from the study. Mice were randomized to treatment groups.
Mice were tested on the insulin tolerance test on day 14 after the initial STZ administration. Mice were administered insulin (0.35U s.c.) and then 30 minutes later administered Compound 102 (100 mg/kg i.p.).
Blood glucose was measured 5, 15, 30, 60, 90, 120, 180, 240, 360, and 480 minutes after Compound 102 or vehicle administration. Blood was collected from a tail snip and drop of blood measured for glucose levels by glucometer (Accu-Chek Aviva Glucometers; Roche Diagnostics).
Data are expressed as the average±SEM. Data were analyzed by two-way ANOVA followed by post-hoc Bonferroni test. N=6/group

[2] = test system: male DbDb Lep-deficient mice; assay: Db/Db Study 1: blood glucose after insulin and/or Compound 102
Experimental: In the present study, male DbDb Lep-deficient mice (Harlan Laboratories) approximately 16 weeks of age were used. [table] Procedure: Mice were divided into 4 groups of 6 mice per group. Blood glucose levels were measured using Accu-Chek Aviva Glucometers (Roche Diagnostics). The times of blood glucose levels were measured up to 72 hours after administration. Glucometers were calibrated prior to each study. […] Glucose levels are reported as mg/dL. In study 1, animals were fasted for 4 hours prior to the administration of test articles and then continuously fasted through to the 8-hour time point. Animals were then provided food ad libitum until 4-hour prior to the 28-hour time point at which point they were fasted until the last blood glucose measurement time point. Data are expressed as the average±SEM. Data were analyzed by two-way ANOVA followed by post-hoc Bonferroni test. N=6/group.

[3] = test system: male DbDb Lep-deficient mice; assay: Db/Db Study 2: blood glucose 24-72 hours after insulin and/or Compound 102; details: for blood glucose levels compared with vehicle controls: twenty-four hours after administration alone, insulin 1.5 units/kg or Compound 102 100 mg/kg, 18 week old db/db mice
Experimental: In the present study, male DbDb Lep-deficient mice (Harlan Laboratories) approximately 18 weeks of age were used. [table] Procedure: Mice were divided into 4 groups of 6 mice per group. Blood glucose levels were measured using Accu-Chek Aviva Glucometers (Roche Diagnostics). The times of blood glucose levels were measured up to 72 hours after administration. Glucometers were calibrated prior to each study. […] Glucose levels are reported as mg/dL. In study 2, animals were fasted for 4 hours prior to each blood glucose measurement time point and then returned to ad libitum food. Data are expressed as the average±SEM. Data were analyzed by two-way ANOVA followed by post-hoc Bonferroni test. N=6/group Results: A second study was conducted to repeat the findings of Compound 102 effects on insulin action in the 24-72 hours time window and specifically to follow the insulin/Compound 102 combination effect through until it returned to normal levels (i.e., that of vehicle-treated animals). In the second study, there were three differences from the first: 1) mice were 18 weeks of age at the time of study, 2) the insulin dose-level was reduced from 3 to 1.5 U/kg and 3) blood glucose levels were measured out until 72 hours after administration.

Molecule | effect on insulin action / insulin-mediated blood glucose lowering ([1]; Compound 102 100 mg/kg i.p. 30 minutes after insulin, p<0.05, p<0.001 versus insulin alone, FIG. 3, 100 mg/kg) | insulin-mediated blood glucose reduction to ([1]; Compound 102 100 mg/kg i.p. administered 30 minutes after insulin (0.35)) [mg/dL] | effect on blood glucose levels ([1]; Compound 102 100 mg/kg i.p. alone, insulin depleted mice, up to 6 hours, 100 mg/kg) | blood glucose levels still reduced up to ([1]; Compound 102 100 mg/kg i.p. in combination with insulin, time after administration) | effect on blood glucose levels ([2]; Compound 102 100 mg/kg alone, 100 mg/kg) | blood glucose levels compared with vehicle controls [3] | blood glucose levels ([1]; insulin alone (0.35), 90 minutes after administration, baseline 546 mg/dL) [mg/dL] | time at which blood glucose levels returned to baseline levels ([1]; insulin alone (0.35), after administration) [h] | time by which blood glucose levels returned to baseline levels ([2]; insulin 3 units/kg alone) [h] | blood glucose levels ([2]; insulin 3 units/kg alone, three hours after administration, fasted 16 week old db/db mice, baseline averaged 482 mg/dL) [mg/dL] | blood glucose in the insulin treated group ([3]; insulin 1.5 units/kg alone, 24-72 hours window (elevation at 24 and 36 hour time points, rebound effect))
Cc1cccc(Oc2cnc(=O)[nH]c2)c1 [Compound 102] | potentiated the insulin effect; also recorded: potentiated and prolonged the actions of insulin; also recorded: potentiated and prolonged insulin-mediated blood glucose lowering | 157 | did not affect blood glucose levels at any time point up to 6 hours after administration | up to 6 hours | did not significantly affect blood glucose levels at any time point after administration; also recorded: Small, but statistically insignificant lowering of blood glucose | not different from vehicle controls | – | – | – | – | –
Insulin [reference compound] | – | – | – | – | – | not different from vehicle controls | 263 | 4.5 | ≤ 8 | 166.5 | does not show blood glucose lowering; also recorded: slightly elevated blood glucose
